Columns and labels:
[1] = tested on: acetic acid-induced writhing syndrome; assay: Analgesic activity (acetic acid writhing syndrome); assay type: in vivo, mice; conditions: for Analgesic activity: 30 mg/kg oral, change in writhing frequency vs control
Method: (§1) For the pharmacological tests CFLP (LATI) mice of both sexes, weighing 18 to 22 g each and male Han. Wistar (LATI) rats weighing 160 to 180 g each were used. The test materials were administered orally, in 30 mg/kg doses, in the form of a suspension containing 5% of Tween 80, one hour before the tests.
4. Analgesic activity (mice)
One hour after pretreatment, mice were administered 0.4 ml of a 0.6% acetic acid solution intraperitoneally, as a pain stimulus. The frequency of writhing syndrome is registered for 30 minutes. The changes observed as a result of treatment with the test compounds is related to the mean value of the frequency of writhing syndrome in the control group, and the difference is expressed in percentage (Koster R. et al.: Exp. Ther. 72:74/1941/).

pentylenetetrazole spasm = assay: Metrazole spasm; assay type: in vivo; conditions: mice, 30 mg/kg oral, pentylenetetrazole 125 mg/kg s.c., observation one hour
Method: as §1
2. Metrazole spasm (mice)
After pretreatment the animals were administered 125 mg/kg of pentylenetetrazole subcutaneously.
Observation time: one hour (Everett L. M. and Richards R. K.: J. Pharmacol. Exp. Ther. 81, 402/1944/).

[2] = tested on: hyperthermia induced with Brewer's yeast; assay: Antipyretic activity (Brewer's yeast hyperthermia); assay type: in vivo, rats; conditions: for ED50: Rattus norvegicus, po, read-out: Antipyretic activity, ED50
Method: as §1
5. Antipyretic activity (rats)
Hyperthermia is induced in rats with Brewer's yeast suspension (0.5% of Brewer's yeast, 1% of arabic gum in a volume of 0.3 ml, s.c.). The animals are treated with the test materials 4 hours later, and the tracheal temperature of the animals is registered with an ELAB thermometer (typ. TE-3) for 4 hours. The antipyretic activity is expressed in percentage of the animals which have an at least one centrigrade lower temperature than the average of the temperature of the control group treated with the solvent (Nimegeers C. J. E. et al.: Arzneimittel Forsch. 25:15/9/1975/).

tonic, extensoric spasm = assay: Maximum electroshock; assay type: in vivo; conditions: mice, 30 mg/kg oral, one hour before test
Method: as §1
1. Maximum electroshock (mice)
The shock was applied through a corneal electrode (20 mA, 0.2 msec, HSE Schockgerat typ. 207).

Row | SMILES | decrease of the frequency of acetic acid-induced writhing syndrome ([1]; mice, 30 mg/kg) | Analgesic activity ([1]; mice) [%] | Antispasm activity, metrazole, b (tonic extensoric spasm) (pentylenetetrazole spasm) | ED50 [2] [mg/kg] | antipyretic potency relative to Na-salicylate ([2]; rats) | Antispasm activity, max. electroshock (tonic, extensoric spasm) | Antipyretic activity ([2]; rats, 30 mg/kg oral, % of animals with at least one centigrade lower temperature than control) [%] | analgesic effect in words ([1]; 30 mg/kg) | ED50 ([1]; Mus musculus, po, read-out: Analgesic activity, ED50) [mg/kg]
1 | COc1cc2c(cc1OC)C1C(CCl)CN1CC2.I (stereo not shown) [Compound A, 1-(chloromethyl)-7,8-dimethoxy-1,4,5,9b-tetrahydro-2H-azeto[2,1-a]isoquinoline hydroiodide] | about 30% | 30.0 | 20.0 | 75 | one and a half-times more potent | – | – | – | –
2 | CCOc1cc2c(cc1OCC)C1C(CCl)CN1CC2.Cl (stereo not shown) [Compound B, 1-(chloromethyl)-7,8-diethoxy-1,4,5,9b-tetrahydro-2H-azeto[2,1-a]isoquinoline hydrochloride] | – | 20.0 | 24.0 | – | – | 20.0 | 30.0 | – | –
3 | O=C(O)c1ccccc1O [Na--salycilate, reference compound] | – | – | 20.0 | 110 | – | – | – | ineffective | 113
